Results on one substance are retold here after patent publication US9211313B2, “Methods and compound to inhibit Ca2+ permeable cation conductance” (priority 2011, dated 2015).

Common to all, as to type: cell-based
For one experiment, the target named is T1, KCa3.1 (Homo sapiens, UniProt O15554).
T1 construct: KCa3.1 activity stimulated in intact human AA cells by 1 μM A23187; endogenous in cells; host or cells: intact human AA red blood cells
The conditions noted are these: 1 μM; intact human AA cells, 1 μM A23187, extracellular Ca2+; n=3.

Experiment [1] concerns deoxygenation-activated cation conductance in human SS red cells. Kind of experiment: On-cell patch clamp of deoxygenation-activated cation conductance, symmetric Na methanesulfonate. The following applies: on-cell patch; for effect on deoxygenation-induced increase in cation conductance: 1 μM in the pipette / outside of membrane. How it is done: (§1) Blood cell preparation: Human SS and AA blood was obtained under IRB-approved protocols of Children's Hospital and Beth Israel Deaconess Medical Center. After buffy coat removal and 5 washes in standard human red cell wash solution containing (in mM) 150 choline Cl, 1 MgCl, and 10 Tris-MOPS, pH 7.4, red cells were resuspended in storage solution containing (in mM) 145 KCl, 15 NaCl, and 10 HEPES, pH 7.4, then kept at 4° C. until used. Human red cells allowed to settle on coverslips were mounted on an inverted microscope in a 200 μl open chamber (WPI, Sarasota, Fla.) and superfused 15 min at room temperature by bath solution containing (in mM) 150 Na methanesulfonate, 10 Na EDTA, and 10 Na HEPES, pH 7.4.
Mouse red cells allowed to settle on coverslips were superfused 15 min with bath solution containing (in mM) either 150 mM Na methanesulfonate, 10 Na EDTA, and 10 Na HEPES, pH 7.4; or 140 NaCl, 4 KCl, 1CaCl2, 1 MgCl2, 10 Na HEPES, pH 7.4. Deoxygenation was achieved by switching superfusate to the same solution gassed ≧30 min prior to the experiment with 100% N2, and by flushing of the perfusion chamber with N2 during the deoxygenation period. The resulting bath pO2 was 18 mm Hg as measured by oxygen electrode (WPI). In the experiments of FIG. 1, deoxygenated cells were subsequently re-oxygenated by exposure to the same superfusate equilibrated with room air.
(§2) Washed human or mouse red cells in solution containing (in mM) 140 NaCl, 5 KCl, 1 CaCl2, 1 MgCl2, 10 Na HEPES, pH 7.4 were exposed for 1 hr on a rotary platform in a 37° C. incubator to 25 ppm carbon monoxide (CO) in 5% CO2. CO-exposed cells were then subjected to patch clamp or to calcium imaging experiments within 60 min after return to room air, using the solutions indicated.
On-cell patch clamp: Borosilicate pipettes (Corning 7052) pulled with a Narishige two stage puller or a Sutter P97 puller and fire-polished to resistances of 10-20 MΩ were front-filled and then backfilled. Symmetric bath and pipette solutions for studies of seal resistance stability during reversibility tests of the deoxygenation-activated conductance in SAD mouse red cells were (in mM) 140 NaCl, 4 KCl, 1 CaCl2, 1 MgCl2, 10 Na HEPES, pH 7.4. These conditions yielded tight seals in 13% of patch attempts on SAD cells. For study of deoxygenation-induced monovalent cation permeation in the absence of bath Ca^2+ and Mg^2+ recorded in SAD and Berkeley mouse cells and in human cells, symmetric bath and pipette solutions contained (in mM) 150 Na methanesulfonate, 10 Na EDTA, and 10 Na HEPES, pH 7.4. These conditions yielded tight seals in 16% of patch attempts on SAD mouse red cells, 26% of attempts on Berkeley mouse cells, and 30% of attempts on human SS cells. For study of Ca^2+ permeation in human SS cells, bath and pipette solutions contained (in mM) 100 CaCl2, 10 Na HEPES, pH 7.4. These conditions yielded tights seals on 44% of attempts. For all conditions tested in human red cells, 70% of tight seals were sustained through the solution change accompanying deoxygenation to allow recording of current activity.
On-cell patch currents were recorded with the Axopatch 1-D amplifier (Axon Instruments/Molecular Devices, Sunnyvale, Calif.). Holding potential was −Vp=−50 mV (expressed as the negative of the pipette potential (e.g., equivalent to the intracellular potential with respect to the pipette). To determine current-voltage relationships (I-V curves) in Fetchex or Clampex (PCLAMP, Axon Instruments), the realtime control window in gap-free mode was used to record current traces of 10-30 sec duration at holding potentials ranging from −100 to +100 mV, in 25 mV increments. The bath reference electrode was a silver chloride wire with a 3 M KCl agar bridge. Data was filtered at 500 Hz, digitized at 2 kHz by Clampex, and analyzed offline by Fetchan and Pstat or by Clampfit subroutines of PCLAMP. Holding potentials in on-cell patch experiments were expressed as −Vp, the negative of the pipette potential.
For orientation: In patch-clamp work, channel activity is measured electrically.

For the next experiment, the system named is human SS red cells. Kind of experiment: Fluo-3 fluorescence measurement of [Ca2+]i during deoxygenation, human SS cells. The conditions noted are these: 1 μM, 10 min pretreatment and continued presence in bath. How it is done: as §1, §2
Fluorescence measurements of cytosolic [Ca^2+] ([Ca^2+]i): After removal of plasma and buffy coat by aspiration, human or mouse red cells were washed three times at room temperature and suspended in modified Hank's solution containing (in mM), 137 NaCl, 5.4 KCl, 1 CaCl2, 1 MgCl2, 0.8 NaK phosphate, 5.6 glucose, and 10 Na HEPES, pH 7.4. Dilute cell suspensions were settled on polylysine-coated coverslips forming the bottom of an open perfusion chamber (2.5 cm diameter, 1 cm depth) and washed again 3 times.
Measurement of relative changes in [Ca^2+]i by Fluo-3 fluorescence emission was previously validated in intact human (Yang et al. 2000, Blood, 95(7):2421-2425; Andrews et al. 2002, Blood, 199(9):3392-3399) and mouse red cells (Akel et al. 2007, Amer. J. Physiol., 292(5):C1759-1767). […] Fluorescence emission (proportional to [Ca^2+]i) from a 535ds20 bandpass filter was collected from all attached single cells within the arbitrarily selected visual field. […]
Fluo-3 fluorescence from attached cells on each coverslip was recorded 60 sec in room air and then for 10 min after onset of perfusion chamber flushing with humidified 100% N2. The normalized increase in Fluo-3 fluorescence in SS cells subjected to this deoxygenation procedure was indistinguishable from that observed during superfusion of cells in a closed perfusion chamber via syringe pump with bath previously bubbled for 60 min with 100% N2 (n=62 cells from 2 SS patients, not shown). The y-axis value of 0% change in Fluo-3 fluorescence intensity represented mean intensity recorded from all cells within the coverslip visual field during the 60 sec prior to deoxygenation.

T1 sequence (O15554 whole entry): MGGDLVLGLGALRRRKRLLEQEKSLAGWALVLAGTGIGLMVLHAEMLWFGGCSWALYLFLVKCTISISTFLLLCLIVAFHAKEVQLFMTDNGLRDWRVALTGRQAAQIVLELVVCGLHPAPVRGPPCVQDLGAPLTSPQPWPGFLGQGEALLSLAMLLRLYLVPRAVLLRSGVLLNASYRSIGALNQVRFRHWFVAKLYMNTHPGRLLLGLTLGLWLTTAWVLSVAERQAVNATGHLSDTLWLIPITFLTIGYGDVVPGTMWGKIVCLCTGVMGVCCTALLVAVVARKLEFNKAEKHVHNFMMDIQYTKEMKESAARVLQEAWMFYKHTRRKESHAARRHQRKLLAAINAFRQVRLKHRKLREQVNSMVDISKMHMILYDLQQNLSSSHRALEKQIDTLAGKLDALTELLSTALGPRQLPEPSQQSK

As to “Grammastola spatulata mechanotoxin 4 (GCLEFWWKCNPNDDKCCRPKLKCSKLFKLCNFSF; listed as Grammastola spatulata) [GsMTx-4]”, the “effect on KCa3.1 activity, cell shrinkage” value in the experiment with KCa3.1 is given as “no effect”. In addition, the “effect on deoxygenation-induced increase in cation conductance” value in experiment [1] is “prevented”; in experiment [1] (listed as GsMTx4), “completely inhibit”. Further, in experiment [1] (1 μM in the pipette, n=6), the NPo after deoxygenation came to 0.003±0.003. Also, the “effect on [Ca2+]i elevation by deoxygenation” value in the experiment on human SS red cells is listed as “prevented”; in the experiment on human SS red cells (listed as GsMTx4), “nearly completely block”; with human SS red cells (listed as GsTMx-4), “blocked”.
